In patent publication US4112228A, “7-(D-α-Hydroxy-2-arylacetamido)-3-(2-carboxyalkyl-2,3-dihydro-s-tri azolo-[4,3-b]pyridazin-3-on-6-ylthiomethyl)-3-cephem-4-carboxylic acids and derivatives” (priority 1977, dated 1978):
Converted amounts (≈) assume the structure as drawn.

How the values were obtained:
[1] = tested on: E. cloacae A20464 (El-19); assay: Standard experimental infection in mice; format: in vivo; details: Run C-811
Klebsiella sp. = assay: MIC by Steers' agar dilution method
Shig. dysenteriae = assay: MIC by Steers' agar dilution method; details: Shigella dysenteriae, MHA
S. paratyphi = assay: MIC by Steers' agar dilution method; details: Salmonella enterica
[2] = tested on: P. mirabilis A9900 (Pm-2); assay: Standard experimental infection (single sc treatment); details: for No. of survivors/No. tested: Run C-810, 1×10^3 LD50, single sc
Citrobacter sp. = assay: MIC by Steers' agar dilution method
P. inconstans = assay: MIC by Steers' agar dilution method; details: Providencia alcalifaciens
Enterob. cloacae = assay: MIC by Steers' agar dilution method
D. pneumoniae = assay: MIC by Steers' agar dilution method

In the case of `O=C(O)Cn1nc2ccc(SCC3=C(C(=O)O)N4C(=O)C(NC(=O)[C@H](O)c5ccccc5)[C@H]4SC3)nn2c1=O` (stereo partly drawn) [BB-S488, 7-(D-Mandelamido)-3-(2-carboxymethyl-2,3-dihydro-s-triazolo[4,3-b]pyridazin-3-on-6-ylthiomethyl)-3-cephem-4-carboxylic Acid], the “No. of survivors/No. tested” value ([1]; 25 mg./kg.) is reported as 5/5, the “No. of survivors/No. tested” value ([1]; 100 mg./kg.) is reported as 5/5 and the MIC (Klebsiella sp.; Kx-2 A9662, MHA, Table 3) is reported as 0.4 µg/mL (≈ 0.699 µM). It also gave an MIC (Klebsiella sp.; Kx-3 A20346 (β-lactamase), HIA, Table 4) of 0.2 µg/mL (≈ 0.349 µM), an MIC (Klebsiella sp.; Kx-3 A20346 (β-lactamase), MHA, Table 4) of 0.2 µg/mL (≈ 0.349 µM) and an MIC (Klebsiella sp.; Kx-3 A20346 (β-lactamase), NA, Table 4) of 0.2 µg/mL (≈ 0.349 µM). It also gave an MIC (Klebsiella sp.; Kx-3 A20346, MHA, Table 3) of 0.2 µg/mL (≈ 0.349 µM), an MIC (Shig. dysenteriae; Example 10) of 0.025 µg/mL (≈ 0.0437 µM) and an MIC (Shig. dysenteriae; Table 1) of 0.025 µg/mL (≈ 0.0437 µM). The MIC (Shig. dysenteriae; Sd-1, Table 3) was 0.1 µg/mL (≈ 0.175 µM), the MIC (S. paratyphi) was 0.1 µg/mL (≈ 0.175 µM) and the ED50 ([2]; Proteus mirabilis, in Mus musculus, sc, read-out: PD50) was 1.1 mg/kg. For the same compound, the “No. of survivors/No. tested” value ([2]; 0.1 mg./kg.) was 0/5, the “No. of survivors/No. tested” value ([2]; 0.4 mg./kg.) was 0/5 and the “No. of survivors/No. tested” value ([2]; 1.6 mg./kg.) was 4/5. For the same compound, the “No. of survivors/No. tested” value ([2]; 6.3 mg./kg.) was 5/5, the “No. of survivors/No. tested” value ([2]; 25 mg./kg.) was 5/5 and the MIC (Citrobacter sp.; Citrobacter) was 1.6 µg/mL (≈ 2.79 µM). For the same compound, the MIC (Citrobacter sp.; Cx-2 A20694, MHA, Table 3) was 1.6 µg/mL (≈ 2.79 µM), the MIC (Citrobacter sp.; Cx-3 A20695, MHA, Table 3) was 1.6 µg/mL (≈ 2.79 µM) and the MIC (P. inconstans) was 0.1 µg/mL (≈ 0.175 µM). It also gave an MIC (Enterob. cloacae; A9656, MHA, Table 1) of 3.1 µg/mL (≈ 5.41 µM), an MIC (Enterob. cloacae; El-1 A9656, HIA, Table 4) of 6.3 µg/mL (≈ 11 µM) and an MIC (Enterob. cloacae; El-1 A9656, MHA, Table 3) of 3.1 µg/mL (≈ 5.41 µM). For the same compound, the MIC (Enterob. cloacae; El-1 A9656, MHA, Table 4) was 3.1 µg/mL (≈ 5.41 µM), the MIC (Enterob. cloacae; El-1 A9656, NA, Table 4) was 12.5 µg/mL (≈ 21.8 µM) and the MIC (Enterob. cloacae; El-2 A20364 (β-lactamase), HIA, Table 4) was 6.3 µg/mL (≈ 11 µM). It also gave an MIC (Enterob. cloacae; El-2 A20364 (β-lactamase), MHA, Table 4) of 3.1 µg/mL (≈ 5.41 µM), an MIC (Enterob. cloacae; El-2 A20364 (β-lactamase), NA, Table 4) of 12.5 µg/mL (≈ 21.8 µM) and an MIC (Enterob. cloacae; El-2 A20364, MHA, Table 3) of 3.1 µg/mL (≈ 5.41 µM). It also gave an MIC (Enterob. cloacae; El-4 A20650, MHA, Table 3) of 1.6 µg/mL (≈ 2.79 µM), an MIC (Enterob. cloacae; El-6 A9657, MHA, Table 3) of 0.8 µg/mL (≈ 1.4 µM) and an MIC (Enterob. cloacae; El-7 A9659, MHA, Table 3) of 1.6 µg/mL (≈ 2.79 µM). The MIC (Enterob. cloacae; El-8 A9655, MHA, Table 3) was 1.6 µg/mL (≈ 2.79 µM), the MIC (Enterob. cloacae; El-9 A20021, MHA, Table 3) was greater than 100 µg/mL and the MIC (Enterob. cloacae; El-11 A20344 (β-lactamase), HIA, Table 4) was greater than 100 µg/mL. The MIC (Enterob. cloacae; El-11 A20344 (β-lactamase), MHA, Table 4) was greater than 100 µg/mL, the MIC (Enterob. cloacae; El-11 A20344 (β-lactamase), NA, Table 4) was greater than 100 µg/mL and the MIC (Enterob. cloacae; El-11 A20344, MHA, Table 3) was greater than 100 µg/mL. For the same compound, the MIC (Enterob. cloacae; El-12 A21006, MHA, Table 3) was 1.6 µg/mL (≈ 2.79 µM), the MIC (Enterob. cloacae; El-14 A20953, MHA, Table 3) was 0.8 µg/mL (≈ 1.4 µM) and the MIC (Enterob. cloacae; MHA, Example 10) was 3.1 µg/mL (≈ 5.41 µM). For the same compound, the MIC (D. pneumoniae; Dp-2 Type I Neufeld, MHA, Table 2) was 0.2 µg/mL (≈ 0.349 µM), the MIC (D. pneumoniae; Dp-3 Type III, MHA, Table 2) was 0.2 µg/mL (≈ 0.349 µM) and the MIC (D. pneumoniae; Dp-4 A9585, MHA, Table 2) was 0.2 µg/mL (≈ 0.349 µM). The MIC (D. pneumoniae; Dp-5 A15069, MHA, Table 2) was 0.2 µg/mL (≈ 0.349 µM), the MIC (D. pneumoniae; Dp-6 A20167, MHA, Table 2) was 0.2 µg/mL (≈ 0.349 µM) and the MIC (D. pneumoniae; Dp-7 A20759, MHA, Table 2) was 0.2 µg/mL (≈ 0.349 µM). It also gave an MIC (D. pneumoniae; Dp-8 A20769, MHA, Table 2) of 0.2 µg/mL (≈ 0.349 µM), an MIC (D. pneumoniae; Dp-9 A20770, MHA, Table 2) of 0.2 µg/mL (≈ 0.349 µM) and an MIC (D. pneumoniae; Streptococcus pneumoniae) of 0.2 µg/mL (≈ 0.349 µM).
